Values joined by “and” are separate entries in the source; they are usually repeats but may differ in a detail not shown here. Identical values can stand only once. Like-named read-outs stand apart in the source and are kept apart here.
Columns and labels:
pRIPK1, pRIPK3, pMLKL = assay: DSS-induced IBD mouse model: colon western blot; format: in vivo, C57BL/6 female mice; conditions: 40 mg/kg i.p., day 7
Method: The liver in the SIRS model and the colon in the IBD model were harvested, homogenated and sonicated in RIPA lysis buffer.
The cell proteins or tissue proteins were separated in a polyacrylamide gel and transferred to a methanol-activated polyvinylidene fluoride membrane. The membrane was blocked for 2 h in Tris-buffered saline plus Tween-20 containing 5% milk and then immunoblotted sequentially with primary and secondary antibodies. Detection was performed with an ECL chemiluminescence kit (Abbkine). The antibodies used were human RIPK1 antibody (R&D, 334640, 1:1000), mouse RIPK1 antibody (Affinity, DF2642, 1:1000), human phospho-RIP (Ser166) rabbit mAb (Cell Signaling Technologies, 65746, 1:1000), mouse phospho-RIP (Ser321) rabbit mAb (Cell Signaling Technologies, 38662, 1:1000), human RIPK3 (B-2) antibody (Santa Cruz, sc-374639, 1:250), mouse RIPK3 antibody (Abcam, ab62344, 1:1000), human anti-RIP3 (phospho S227) antibody (Abcam, ab209384, 1:2000), mouse anti-RIP3 (phospho T231 + S232) antibody (Abcam, ab205421, 1:500), anti-MLKL (58–70) antibody (Sigma, M6697, 1:250), human anti-MLKL (phospho S358) antibody (Abcam, ab187091, 1:1000), mouse anti-MLKL (phospho S345) antibody (Abcam, ab196436, 1:1000), and β-actin (Proteintech, 66009-1-Ig, 1:1000).

[1] = Pharmacokinetics in Sprague-Dawley rats; format: in vivo; conditions: for Plasma Concentraion / concentration at 0.083 h / concentration at 0.5 h / concentration at 1 h / concentration at 2 h / concentration at 4 h / concentration at 6 h / concentration at 8 h: animals 1-3; for concentration at 0.083 h / concentration at 0.5 h / concentration at 1 h / concentration at 2 h / concentration at 4 h / concentration at 6 h / concentration at 8 h: read-out: Plasma Concentraion; for MRT inf: read-out: MRT0-∞
Method: The PK properties of compounds were examined in male Sprague-Dawley rats (n = 3 per group, weight: 180–220 g). Compounds were dissolved in saline with 5% (v/v) DMSO plus 40% (v/v) PEG400. The animals were administered with a single dose of 5 mg/kg (intravenous injection (i.v.)), 20 mg/kg (intraperitoneal injection (i.p.) or oral gavage (p.o.)). Blood samples were collected at 0.083, 0.25, 0.5, 1, 2, 4, 6, 8, 10 and 24 h, and centrifuged to isolate plasma. Subsequently, the plasma compound concentrations were determined by LC-MS/MS-13 (TQ5500, SCIEX), and the PK parameters were calculated using Phoenix WinNonlin 7.0.

[2] = male, Sprague-Dawley, rat, plasma, ip, 20 mg/kg
[3] = male, Sprague-Dawley, rat, plasma, iv, 5 mg/kg
[4] = male, Sprague-Dawley, rat, plasma, po, 20 mg/kg

## CC(C)C(=O)Nc1nc2cc(-c3ccc4c(c3)c(C(=O)NC(C)c3ccccc3)cn4C)ccn2n1 (centres unmarked) [RI-962]
pRIPK1, pRIPK3, pMLKL
  levels of pRIPK1, pRIPK3, and pMLKL in the colon: reduced the levels of pRIPK1, pRIPK3, and pMLKL proteins
[1]; Supplementary Figure 7 panel a, 0.083 h
  Plasma Concentraion: 11181.2 ng/mL and 13503.2 ng/mL
[1]; Supplementary Figure 7 panel a, 0.5 h
  Plasma Concentraion: 2022.7 ng/mL and 2493.56 ng/mL
[1]; Supplementary Figure 7 panel a, 1 h
  Plasma Concentraion: 324.429 ng/mL and 368.25 ng/mL
[1]; Supplementary Figure 7 panel a, 2 h
  Plasma Concentraion: 53.1161 ng/mL and 49.8208 ng/mL
[1]; Supplementary Figure 7 panel a, 4 h
  Plasma Concentraion: 20.793 ng/mL and 12.876 ng/mL
[1]; Supplementary Figure 7 panel a, 6 h
  Plasma Concentraion: 12.1272 ng/mL and 7.691 ng/mL
[1]; Supplementary Figure 7 panel a, 8 h
  Plasma Concentraion: 5.677 ng/mL and 3.748 ng/mL
[1]; Supplementary Figure 7 panel b, 0.083 h
  Plasma Concentraion: 127.196 ng/mL and 183.609 ng/mL
[1]; Supplementary Figure 7 panel b, 0.5 h
  Plasma Concentraion: 350.948 ng/mL and 617.101 ng/mL
[1]; Supplementary Figure 7 panel b, 6 h
  Plasma Concentraion: 11.7068 ng/mL and 13.5938 ng/mL
[1]; Supplementary Figure 7 panel b, 8 h
  Plasma Concentraion: 8.501 ng/mL and 5.3 ng/mL
[1]; Supplementary Figure 7 panel c, 0.083 h
  Plasma Concentraion: 841.69 ng/mL and 1224.6 ng/mL
[1]; Supplementary Figure 7 panel c, 0.5 h
  Plasma Concentraion: 4149.3 ng/mL and 2823.2 ng/mL
[1]; Supplementary Figure 7 panel c, 1 h
  Plasma Concentraion: 3680.1 ng/mL and 2363 ng/mL
[1]; Supplementary Figure 7 panel c, 2 h
  Plasma Concentraion: 635.78 ng/mL and 701.71 ng/mL
[1]; Supplementary Figure 7 panel c, 4 h
  Plasma Concentraion: 226.7 ng/mL and 115.63 ng/mL
[1]; male, Sprague-Dawley, rat, plasma, intraperitoneal, 20 mg/kg, Supplementary Figure 7 panel c, 0.083 h
  concentration at 0.083 h: 1010 ng/mL
[1]; male, Sprague-Dawley, rat, plasma, intraperitoneal, 20 mg/kg, Supplementary Figure 7 panel c, 0.5 h
  concentration at 0.5 h: 3840 ng/mL
[1]; male, Sprague-Dawley, rat, plasma, intraperitoneal, 20 mg/kg, Supplementary Figure 7 panel c, 1 h
  concentration at 1 h: 3080 ng/mL
[1]; male, Sprague-Dawley, rat, plasma, intraperitoneal, 20 mg/kg, Supplementary Figure 7 panel c, 2 h
  concentration at 2 h: 737 ng/mL
[1]; male, Sprague-Dawley, rat, plasma, intraperitoneal, 20 mg/kg, Supplementary Figure 7 panel c, 4 h
  concentration at 4 h: 229 ng/mL
[1]; male, Sprague-Dawley, rat, plasma, intravenous, 5 mg/kg, Supplementary Figure 7 panel a, 0.083 h
  concentration at 0.083 h: 11800 ng/mL
[1]; male, Sprague-Dawley, rat, plasma, intravenous, 5 mg/kg, Supplementary Figure 7 panel a, 0.5 h
  concentration at 0.5 h: 1610 ng/mL
[1]; male, Sprague-Dawley, rat, plasma, intravenous, 5 mg/kg, Supplementary Figure 7 panel a, 1 h
  concentration at 1 h: 291 ng/mL
[1]; male, Sprague-Dawley, rat, plasma, intravenous, 5 mg/kg, Supplementary Figure 7 panel a, 2 h
  concentration at 2 h: 59.6 ng/mL
[1]; male, Sprague-Dawley, rat, plasma, intravenous, 5 mg/kg, Supplementary Figure 7 panel a, 4 h
  concentration at 4 h: 20.6 ng/mL
[1]; male, Sprague-Dawley, rat, plasma, intravenous, 5 mg/kg, Supplementary Figure 7 panel a, 6 h
  concentration at 6 h: 11.6 ng/mL
[1]; male, Sprague-Dawley, rat, plasma, intravenous, 5 mg/kg, Supplementary Figure 7 panel a, 8 h
  concentration at 8 h: 6.4 ng/mL
[1]; [2]
  AUC(0-inf): 6610 ± 1120 ng·h/mL
  AUC(0-t): 6460 ng·h/mL
  Cmax: 3600 ± 693 ng/mL
  Tmax: 0.5 h
  bioavailability: 35.7 ± 6.3%
  half-life: 8.5 ± 1.6 h
  MRT inf: 2.8 ± 0.1 h
[1]; [3]
  AUC(0-inf): 4540 ± 546 ng·h/mL
  AUC(0-t): 4530 ng·h/mL
  Cmax: 12200 ± 1200 ng/mL
  Tmax: 0.1 h
  clearance: 18.5 ± 2.1 mL/min/kg
  half-life: 2.1 ± 0.2 h
  MRT inf: 0.4 h
[1]; male, Sprague-Dawley, rat, plasma, iv, 5 mg/kg, read-out: Vss
  Vd: 0.4 ± 0.1 L/kg
[1]; male, Sprague-Dawley, rat, plasma, oral, 20 mg/kg, Supplementary Figure 7 panel b, 0.083 h
  concentration at 0.083 h: 113 ng/mL
[1]; male, Sprague-Dawley, rat, plasma, oral, 20 mg/kg, Supplementary Figure 7 panel b, 0.5 h
  concentration at 0.5 h: 418 ng/mL
[1]; male, Sprague-Dawley, rat, plasma, oral, 20 mg/kg, Supplementary Figure 7 panel b, 6 h
  concentration at 6 h: 11.3 ng/mL
[1]; male, Sprague-Dawley, rat, plasma, oral, 20 mg/kg, Supplementary Figure 7 panel b, 8 h
  concentration at 8 h: 7.91 ng/mL
[1]; [4]
  AUC(0-inf): 1600 ± 896 ng·h/mL
  AUC(0-t): 1590 ng·h/mL
  Cmax: 674 ± 425 ng/mL
  Tmax: 0.8 ± 1 h
  half-life: 1.3 ± 0.2 h
  MRT inf: 1.8 ± 0.2 h
[1]; p.o., 20 mg/kg
  AUC0–t: 1594.9 ± 891.8 ng·h/mL
  F (%): 8.8 ± 5.0%

Source: PMC9653409, “Generative deep learning enables the discovery of a potent and selective RIPK1 inhibitor” (Nature Communications, 2022)
